Data as given in patent EP2745708A1, “Antidepressant effect of ß-hydroxy-ß-methylbutyrate” (Abbott Laboratories, Inc., priority 2012, dated 2014).

Test system: rats
Assay: Forced swimming test (FST) in rats
Format: in vivo
Conditions: forced swim test, oral 250 mg/kg or 500 mg/kg body weight after pre-swim and four hours and one hour prior to 5 minute test swim, two independent experiments
Description: The antidepressant effect of HMB was evaluated using the forced swimming test (FST) using the procedure described by Porsolt et al. (Eur. J. Pharmacol. 47(4). 379-91 (1978)). To begin the experiment, rats were individually placed inside vertical cylinders (height 40 cm; diameter 21.5 cm) containing 30 cm of water at 35 °C for 15 minutes (i.e., "pre-swim). Following this pre-swim period, the rats were removed and allowed to dry in a heated enclosure before returning to their cages. The rats were then orally administered a dose of either 250 mg/kg body weight or 500 mg/kg body weight HMB.
Twenty-four hours later, rats were submitted to the test swim, in which the rats were again placed in the cylinder for 5 minutes. Test swims were videotaped and subsequently assessed for latency to immobility, which is the point at which no movements were observed and the rat was in the "deadman" position (i.e., head up, tail down, front legs slightly hunched, and rear legs pointed downwards). Rats were orally administered their respective doses of either 250 mg/kg body weight or 500 mg/kg body weight of HMB four hours and one hours prior to the swim test.

## CC(C)(O)CC(=O)O [HMB, 3-hydroxy-3-methylbutanoic acid]
  latency to immobility: significantly increased
